{"source": "ChEMBL document CHEMBL3098111", "about": "“Discovery of 2,5-diarylnicotinamides as selective orexin-2 receptor antagonists (2-SORAs)” (Bioorg Med Chem Lett, 2013)", "key": {"[1]": {"target": "Estrogen receptor (Homo sapiens) (UniProt P03372)", "experiment": "Inhibition of human ERalpha receptor at 10 uM relative to control"}, "[2]": {"target": "Endothelin receptor type B (Homo sapiens) (UniProt P24530)", "experiment": "Inhibition of human ETB receptor at 10 uM relative to control"}, "[3]": {"target": "Endothelin-1 receptor (Homo sapiens) (UniProt P25101)", "experiment": "Inhibition of human ETA receptor at 10 uM relative to control"}, "[4]": {"target": "D(2) dopamine receptor (Homo sapiens) (UniProt P14416)", "experiment": "Inhibition of human dopamine D2S receptor at 10 uM relative to control"}, "[5]": {"target": "Gastrin/cholecystokinin type B receptor (Homo sapiens) (UniProt P32239)", "sequence (P32239 whole entry)": "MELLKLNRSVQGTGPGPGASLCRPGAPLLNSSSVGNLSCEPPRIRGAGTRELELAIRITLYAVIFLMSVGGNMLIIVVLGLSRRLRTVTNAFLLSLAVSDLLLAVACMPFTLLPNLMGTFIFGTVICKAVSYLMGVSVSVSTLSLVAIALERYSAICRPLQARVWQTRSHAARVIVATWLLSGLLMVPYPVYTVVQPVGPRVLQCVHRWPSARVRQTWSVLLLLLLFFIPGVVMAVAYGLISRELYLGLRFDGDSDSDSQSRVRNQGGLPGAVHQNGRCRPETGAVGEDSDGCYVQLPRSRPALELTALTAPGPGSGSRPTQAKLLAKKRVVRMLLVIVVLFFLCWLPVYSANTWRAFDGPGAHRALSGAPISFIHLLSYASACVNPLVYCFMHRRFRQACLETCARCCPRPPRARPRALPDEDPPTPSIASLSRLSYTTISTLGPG", "experiment": "Inhibition of human CCKB receptor at 10 uM relative to control"}, "[6]": {"target": "Cannabinoid receptor 2 (Homo sapiens) (UniProt P34972)", "experiment": "Inhibition of human CB2 receptor at 10 uM relative to control"}, "[7]": {"target": "Type-1 angiotensin II receptor (Homo sapiens) (UniProt P30556)", "sequence (P30556 whole entry)": "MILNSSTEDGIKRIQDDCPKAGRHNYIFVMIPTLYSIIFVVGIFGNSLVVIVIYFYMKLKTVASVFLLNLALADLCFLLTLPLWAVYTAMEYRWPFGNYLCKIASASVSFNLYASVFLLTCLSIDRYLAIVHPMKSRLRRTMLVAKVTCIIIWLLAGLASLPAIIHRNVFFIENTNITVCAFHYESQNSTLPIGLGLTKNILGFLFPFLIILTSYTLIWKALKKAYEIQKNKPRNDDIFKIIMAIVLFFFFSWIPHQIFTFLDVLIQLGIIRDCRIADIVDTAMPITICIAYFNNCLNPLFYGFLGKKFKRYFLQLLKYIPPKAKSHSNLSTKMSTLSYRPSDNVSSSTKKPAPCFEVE", "experiment": "Inhibition of human angiotensin AT1 receptor at 10 uM relative to control"}, "[8]": {"target": "Alpha-2B adrenergic receptor (Homo sapiens) (UniProt P18089)", "experiment": "Inhibition of human alpha2B adrenergic receptor at 10 uM relative to control"}, "[9]": {"target": "Adrenergic receptor alpha-2 (Rattus norvegicus) (UniProt P22086+P19328+P22909)", "experiment": "Inhibition of rat alpha2 adrenergic receptor at 10 uM relative to control"}, "[10]": {"target": "Tyrosine-protein phosphatase non-receptor type 2 (Homo sapiens) (UniProt P17706)", "experiment": "Inhibition of human TCPTP at 10 uM relative to control"}, "[11]": {"target": "Proto-oncogene tyrosine-protein kinase Src (Homo sapiens) (UniProt P12931)", "experiment": "Inhibition of human SRC at 10 uM relative to control"}, "[12]": {"target": "Vascular endothelial growth factor receptor 1 (Homo sapiens) (UniProt P17948)", "experiment": "Inhibition of human FLT1 at 10 uM relative to control"}, "[13]": {"target": "Mitogen-activated protein kinase 3 (Homo sapiens) (UniProt P27361)", "sequence (P27361 whole entry)": "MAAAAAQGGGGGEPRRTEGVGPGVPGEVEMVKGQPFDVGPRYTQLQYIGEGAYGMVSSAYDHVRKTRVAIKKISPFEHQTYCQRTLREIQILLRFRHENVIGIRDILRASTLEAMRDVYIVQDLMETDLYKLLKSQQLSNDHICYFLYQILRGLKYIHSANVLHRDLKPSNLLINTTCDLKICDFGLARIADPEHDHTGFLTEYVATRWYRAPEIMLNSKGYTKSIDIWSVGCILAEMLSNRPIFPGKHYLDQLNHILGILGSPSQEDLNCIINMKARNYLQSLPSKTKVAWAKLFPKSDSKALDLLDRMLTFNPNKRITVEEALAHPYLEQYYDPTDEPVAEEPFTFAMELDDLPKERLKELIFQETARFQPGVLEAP", "experiment": "Inhibition of human MAPK3 at 100 uM relative to control"}, "[14]": {"target": "cGMP-specific 3',5'-cyclic phosphodiesterase (Homo sapiens) (UniProt O76074)", "experiment": "Inhibition of human PDE5 at 100 uM relative to control"}, "[15]": {"target": "Macrophage metalloelastase (Homo sapiens) (UniProt P39900)", "sequence (P39900 106-470 limits assumed)": "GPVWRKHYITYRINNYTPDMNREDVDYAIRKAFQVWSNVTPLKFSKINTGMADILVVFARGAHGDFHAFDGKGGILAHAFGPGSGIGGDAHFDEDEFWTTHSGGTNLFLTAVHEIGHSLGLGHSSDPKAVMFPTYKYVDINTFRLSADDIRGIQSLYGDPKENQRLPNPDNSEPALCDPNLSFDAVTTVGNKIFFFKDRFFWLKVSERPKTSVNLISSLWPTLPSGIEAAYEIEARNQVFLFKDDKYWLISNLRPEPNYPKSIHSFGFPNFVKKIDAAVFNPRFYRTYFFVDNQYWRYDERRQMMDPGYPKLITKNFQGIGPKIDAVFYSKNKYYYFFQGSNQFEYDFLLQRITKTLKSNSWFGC", "experiment": "Inhibition of human MMP-12 at 10 uM relative to control"}, "[16]": {"target": "Interstitial collagenase (Homo sapiens) (UniProt P03956)", "sequence (P03956 whole entry)": "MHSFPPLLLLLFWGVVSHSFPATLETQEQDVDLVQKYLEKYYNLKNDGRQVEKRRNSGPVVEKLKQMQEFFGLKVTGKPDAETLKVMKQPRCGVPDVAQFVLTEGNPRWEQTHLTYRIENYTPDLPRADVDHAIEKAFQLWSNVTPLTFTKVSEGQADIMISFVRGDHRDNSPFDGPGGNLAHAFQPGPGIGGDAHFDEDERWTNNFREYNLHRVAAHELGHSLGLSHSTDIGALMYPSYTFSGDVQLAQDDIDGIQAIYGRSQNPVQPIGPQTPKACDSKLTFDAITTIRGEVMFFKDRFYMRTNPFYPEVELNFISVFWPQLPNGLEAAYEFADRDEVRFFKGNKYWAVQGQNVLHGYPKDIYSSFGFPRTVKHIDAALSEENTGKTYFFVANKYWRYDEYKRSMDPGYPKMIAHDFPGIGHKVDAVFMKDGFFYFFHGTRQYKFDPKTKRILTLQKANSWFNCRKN", "experiment": "Inhibition of human MMP-1 at 10 uM relative to control"}, "[17]": {"target": "Caspase-8 (Homo sapiens) (UniProt Q14790)", "experiment": "Inhibition of human caspase 8 at 10 uM relative to control"}, "[18]": {"target": "Caspase-1 (Homo sapiens) (UniProt P29466)", "sequence (P29466 120-297 limits assumed)": "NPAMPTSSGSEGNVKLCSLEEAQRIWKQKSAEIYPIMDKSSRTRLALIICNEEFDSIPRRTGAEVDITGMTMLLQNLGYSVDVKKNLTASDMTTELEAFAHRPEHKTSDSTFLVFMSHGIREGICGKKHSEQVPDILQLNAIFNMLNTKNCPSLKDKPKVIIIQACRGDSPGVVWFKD", "sequence (P29466 317-404 limits assumed)": "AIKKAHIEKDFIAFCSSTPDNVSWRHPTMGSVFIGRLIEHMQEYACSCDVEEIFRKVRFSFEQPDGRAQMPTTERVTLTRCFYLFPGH", "experiment": "Inhibition of human caspase 1 at 10 uM relative to control"}, "[19]": {"target": "Nitric oxide synthase 1 (Rattus norvegicus) (UniProt P29476)", "experiment": "Inhibition of rat nNOS at 10 uM relative to control"}, "[20]": {"target": "Polyunsaturated fatty acid 5-lipoxygenase (Homo sapiens) (UniProt P09917)", "sequence (P09917 whole entry)": "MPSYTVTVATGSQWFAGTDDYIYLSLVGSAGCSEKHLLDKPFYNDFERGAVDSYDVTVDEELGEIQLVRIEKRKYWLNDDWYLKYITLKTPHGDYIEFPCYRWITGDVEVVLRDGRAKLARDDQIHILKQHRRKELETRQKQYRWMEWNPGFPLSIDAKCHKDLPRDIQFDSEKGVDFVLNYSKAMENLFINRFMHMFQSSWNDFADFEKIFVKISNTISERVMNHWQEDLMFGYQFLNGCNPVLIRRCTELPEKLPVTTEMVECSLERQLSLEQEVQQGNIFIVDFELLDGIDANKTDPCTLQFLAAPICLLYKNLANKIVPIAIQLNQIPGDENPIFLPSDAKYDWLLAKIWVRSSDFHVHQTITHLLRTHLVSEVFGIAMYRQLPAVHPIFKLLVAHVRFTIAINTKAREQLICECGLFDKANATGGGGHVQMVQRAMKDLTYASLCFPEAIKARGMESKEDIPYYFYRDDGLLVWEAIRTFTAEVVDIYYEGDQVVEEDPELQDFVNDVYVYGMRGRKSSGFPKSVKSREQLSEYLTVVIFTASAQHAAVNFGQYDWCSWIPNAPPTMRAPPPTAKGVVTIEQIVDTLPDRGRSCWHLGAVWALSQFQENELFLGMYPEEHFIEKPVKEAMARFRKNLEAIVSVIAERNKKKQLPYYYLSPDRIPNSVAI", "experiment": "Inhibition of human 5-lipoxygenase at 10 uM relative to control"}, "[21]": {"target": "5-hydroxytryptamine receptor 2B (Homo sapiens, UniProt P41595)", "experiment": "Inhibition of human 5-HT2B receptor at 1 uM relative to control"}, "[22]": {"organism": "Cavia porcellus", "experiment": "Inhibition of guinea pig adenosine transporter at 10 uM relative to control"}, "[23]": {"target": "Sodium-dependent dopamine transporter (Homo sapiens) (UniProt Q01959)", "experiment": "Inhibition of human DAT at 10 uM relative to control"}, "[24]": {"target": "Substance-K receptor (Homo sapiens) (UniProt P21452)", "sequence (P21452 whole entry)": "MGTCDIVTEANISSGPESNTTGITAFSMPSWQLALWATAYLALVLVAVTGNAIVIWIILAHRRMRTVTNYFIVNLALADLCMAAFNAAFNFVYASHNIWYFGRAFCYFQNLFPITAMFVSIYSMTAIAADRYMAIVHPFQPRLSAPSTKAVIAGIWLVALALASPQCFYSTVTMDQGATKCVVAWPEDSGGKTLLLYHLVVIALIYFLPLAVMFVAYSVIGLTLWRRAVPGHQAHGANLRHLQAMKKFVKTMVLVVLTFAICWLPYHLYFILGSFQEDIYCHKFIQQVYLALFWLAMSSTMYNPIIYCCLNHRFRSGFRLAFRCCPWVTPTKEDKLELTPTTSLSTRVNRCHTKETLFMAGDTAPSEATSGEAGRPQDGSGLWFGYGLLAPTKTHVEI", "experiment": "Inhibition of human NK2 receptor at 10 uM relative to control"}, "[25]": {"target": "Somatostatin receptor type 3 (Homo sapiens) (UniProt P32745)", "experiment": "Inhibition of human SST3 receptor at 10 uM relative to control"}, "[26]": {"target": "5-hydroxytryptamine receptor 6 (Homo sapiens) (UniProt P50406)", "experiment": "Inhibition of human 5-HT6 receptor at 10 uM relative to control"}, "[27]": {"organism": "Rattus norvegicus", "experiment": "Inhibition of rat 5-HT1 receptor at 10 uM relative to control"}, "[28]": {"target": "Prostacyclin receptor (Homo sapiens) (UniProt P43119)", "experiment": "Inhibition of human prostanoid IP receptor at 10 uM relative to control"}, "[29]": {"target": "Prostaglandin F2-alpha receptor (Homo sapiens) (UniProt P43088)", "experiment": "Inhibition of human prostanoid FP receptor at 10 uM relative to control"}, "[30]": {"target": "Prostaglandin E2 receptor EP1 subtype (Homo sapiens) (UniProt P34995)", "experiment": "Inhibition of human prostanoid EP1 receptor at 10 uM relative to control"}, "[31]": {"target": "Prostaglandin D2 receptor (Homo sapiens) (UniProt Q13258)", "experiment": "Inhibition of human prostanoid DP receptor at 10 uM relative to control"}, "[32]": {"target": "Peroxisome proliferator-activated receptor gamma (Homo sapiens) (UniProt P37231)", "experiment": "Inhibition of human PPARgamma at 10 uM relative to control"}, "[33]": {"target": "Oxytocin receptor (Homo sapiens) (UniProt P30559)", "experiment": "Inhibition of human oxytocin receptor at 10 uM relative to control"}, "[34]": {"target": "Kappa-type opioid receptor (Homo sapiens) (UniProt P41145)", "experiment": "Inhibition of human kappa opioid receptor at 10 uM relative to control"}, "[35]": {"target": "Neurotensin receptor type 1 (Homo sapiens) (UniProt P30989)", "experiment": "Inhibition of human NT1 receptor at 10 uM relative to control"}, "[36]": {"target": "Neuropeptide Y receptor type 1 (Homo sapiens) (UniProt P25929)", "experiment": "Inhibition of human neuropeptide YY1 receptor at 10 uM relative to control"}, "[37]": {"target": "Muscarinic acetylcholine receptor M2 (Homo sapiens) (UniProt P08172)", "experiment": "Inhibition of human muscarinic M2 receptor at 10 uM relative to control"}, "[38]": {"target": "Melanocortin receptor 4 (Homo sapiens) (UniProt P32245)", "experiment": "Inhibition of human MC4 receptor at 10 uM relative to control"}, "[39]": {"target": "Melanocortin receptor 3 (Homo sapiens) (UniProt P41968)", "experiment": "Inhibition of human MC3 receptor at 10 uM relative to control"}, "[40]": {"target": "Cysteinyl leukotriene receptor 1 (Homo sapiens) (UniProt Q9Y271)", "experiment": "Inhibition of human CysLT1 receptor at 10 uM relative to control"}, "[41]": {"target": "Insulin receptor (Rattus norvegicus) (UniProt P15127)", "sequence (P15127 27-759 limits assumed)": "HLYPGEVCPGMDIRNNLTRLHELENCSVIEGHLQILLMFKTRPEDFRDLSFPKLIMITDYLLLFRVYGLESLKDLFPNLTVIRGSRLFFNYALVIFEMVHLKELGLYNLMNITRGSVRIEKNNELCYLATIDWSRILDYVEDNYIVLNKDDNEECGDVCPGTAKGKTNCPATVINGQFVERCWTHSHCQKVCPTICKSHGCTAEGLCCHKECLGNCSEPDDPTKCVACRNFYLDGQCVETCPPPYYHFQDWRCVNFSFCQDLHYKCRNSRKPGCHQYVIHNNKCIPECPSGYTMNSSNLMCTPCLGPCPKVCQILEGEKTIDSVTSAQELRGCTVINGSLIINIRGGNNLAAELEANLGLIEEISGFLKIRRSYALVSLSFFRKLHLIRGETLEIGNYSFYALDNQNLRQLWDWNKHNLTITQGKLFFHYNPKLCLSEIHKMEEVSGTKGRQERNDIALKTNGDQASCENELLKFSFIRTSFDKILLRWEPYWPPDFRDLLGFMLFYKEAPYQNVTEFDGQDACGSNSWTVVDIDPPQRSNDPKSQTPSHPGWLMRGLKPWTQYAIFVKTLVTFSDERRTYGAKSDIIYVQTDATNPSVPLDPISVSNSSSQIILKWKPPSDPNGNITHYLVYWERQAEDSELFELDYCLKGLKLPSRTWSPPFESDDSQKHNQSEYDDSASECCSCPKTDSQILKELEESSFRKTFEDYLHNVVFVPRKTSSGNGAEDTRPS", "sequence (P15127 764-1383 limits assumed)": "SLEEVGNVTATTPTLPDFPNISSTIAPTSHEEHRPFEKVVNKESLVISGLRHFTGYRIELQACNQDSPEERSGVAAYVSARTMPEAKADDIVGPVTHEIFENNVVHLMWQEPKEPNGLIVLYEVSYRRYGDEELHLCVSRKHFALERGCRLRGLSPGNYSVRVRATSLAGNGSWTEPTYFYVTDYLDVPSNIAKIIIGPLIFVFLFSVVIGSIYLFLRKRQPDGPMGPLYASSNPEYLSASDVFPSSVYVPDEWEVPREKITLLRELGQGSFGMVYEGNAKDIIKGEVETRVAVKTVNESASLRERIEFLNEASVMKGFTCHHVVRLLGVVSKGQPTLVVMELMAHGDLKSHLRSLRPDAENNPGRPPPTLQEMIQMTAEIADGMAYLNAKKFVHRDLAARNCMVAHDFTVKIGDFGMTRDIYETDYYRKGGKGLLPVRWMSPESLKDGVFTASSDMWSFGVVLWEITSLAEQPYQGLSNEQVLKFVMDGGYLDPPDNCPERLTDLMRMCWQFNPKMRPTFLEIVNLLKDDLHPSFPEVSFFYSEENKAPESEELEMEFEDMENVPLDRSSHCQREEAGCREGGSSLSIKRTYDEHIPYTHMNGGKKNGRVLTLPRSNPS", "experiment": "Inhibition of rat insulin receptor at 10 uM relative to control"}, "[42]": {"organism": "Rattus norvegicus", "experiment": "Inhibition of rat glutamate receptor at 10 uM relative to control"}, "[43]": {"organism": "Rattus norvegicus", "experiment": "Inhibition of rat AMPA receptor at 10 uM relative to control"}}}
{"smiles": "COc1ccc(CNC(=O)c2cc(-c3cc(Cl)cc(Cl)c3)cnc2-c2cccnc2)cc1OC", "values": [{"measurement": "inhibition", "setting": "[1]", "value": 20, "unit": "%"}, {"measurement": "inhibition", "setting": "[2]", "value": 8, "unit": "%"}, {"measurement": "inhibition", "setting": "[3]", "value": 4, "unit": "%"}, {"measurement": "inhibition", "setting": "[4]", "value": -2, "unit": "%"}, {"measurement": "inhibition", "setting": "[5]", "value": -4, "unit": "%"}, {"measurement": "inhibition", "setting": "[6]", "value": 2, "unit": "%"}, {"measurement": "inhibition", "setting": "[7]", "value": 14, "unit": "%"}, {"measurement": "inhibition", "setting": "[8]", "value": 34, "unit": "%"}, {"measurement": "inhibition", "setting": "[9]", "value": 37, "unit": "%"}, {"measurement": "inhibition", "setting": "[10]", "value": 4, "unit": "%"}, {"measurement": "inhibition", "setting": "[11]", "value": -5, "unit": "%"}, {"measurement": "inhibition", "setting": "[12]", "value": 20, "unit": "%"}, {"measurement": "inhibition", "setting": "[13]", "value": 10, "unit": "%"}, {"measurement": "inhibition", "setting": "[14]", "value": -8, "unit": "%"}, {"measurement": "inhibition", "setting": "[15]", "value": -6, "unit": "%"}, {"measurement": "inhibition", "setting": "[16]", "value": 4, "unit": "%"}, {"measurement": "inhibition", "setting": "[17]", "value": -1, "unit": "%"}, {"measurement": "inhibition", "setting": "[18]", "value": 4, "unit": "%"}, {"measurement": "inhibition", "setting": "[19]", "value": -1, "unit": "%"}, {"measurement": "inhibition", "setting": "[20]", "value": 44, "unit": "%"}, {"measurement": "inhibition", "setting": "[21]", "value": 52, "unit": "%"}, {"measurement": "inhibition", "setting": "[22]", "value": 69, "unit": "%"}, {"measurement": "inhibition", "setting": "[23]", "value": -7, "unit": "%"}, {"measurement": "inhibition", "setting": "[24]", "value": 25, "unit": "%"}, {"measurement": "inhibition", "setting": "[25]", "value": 30, "unit": "%"}, {"measurement": "inhibition", "setting": "[26]", "value": -8, "unit": "%"}, {"measurement": "inhibition", "setting": "[27]", "value": 36, "unit": "%"}, {"measurement": "inhibition", "setting": "[28]", "value": -2, "unit": "%"}, {"measurement": "inhibition", "setting": "[29]", "value": 19, "unit": "%"}, {"measurement": "inhibition", "setting": "[30]", "value": 10, "unit": "%"}, {"measurement": "inhibition", "setting": "[31]", "value": 16, "unit": "%"}, {"measurement": "inhibition", "setting": "[32]", "value": 3, "unit": "%"}, {"measurement": "inhibition", "setting": "[33]", "value": 14, "unit": "%"}, {"measurement": "inhibition", "setting": "[34]", "value": 9, "unit": "%"}, {"measurement": "inhibition", "setting": "[35]", "value": 21, "unit": "%"}, {"measurement": "inhibition", "setting": "[36]", "value": 23, "unit": "%"}, {"measurement": "inhibition", "setting": "[37]", "value": -8, "unit": "%"}, {"measurement": "inhibition", "setting": "[38]", "value": 6, "unit": "%"}, {"measurement": "inhibition", "setting": "[39]", "value": 2, "unit": "%"}, {"measurement": "inhibition", "setting": "[40]", "value": 9, "unit": "%"}, {"measurement": "inhibition", "setting": "[41]", "value": -5, "unit": "%"}, {"measurement": "inhibition", "setting": "[42]", "value": -6, "unit": "%"}, {"measurement": "inhibition", "setting": "[43]", "value": 9, "unit": "%"}]}
